Reference: US20180193209A1, “A POLYMER PRODUCT AND PREPARATION THEROF” (SINGAPORE HEALTH SERVICES PTE LTD., priority 2015, published 2018)

Test system: Human dermal fibroblast cells
Test: MTS-based cell viability assay on fiber mats
Details: 24 hours culture
Description: Human dermal fibroblast cells were cultured according to the procedures recited in Biomacromolecules, 2005, 6 (5), pp 2583-2589. Briefly, cells were cultured in DMEM medium (Gibco®) supplemented with 10% (v/v) fetal bovine serum, 50 U/ml penicillin and 50 μg/ml streptomycin in a humidified incubator at 37° C. and 5% CO2. All the cell culture reagents were obtained from Life Technologies Corporation (Singapore). For biocompatibility experiments, cells were seeded onto the coverslips precoated with scaffolds and placed at the bottom of the 12-well plates (Nunc®) at a density of 10×10^4 cells/well and allowed to grow for 24 hours before analysis. For the negative control well(s), nocodazole was added to a final concentration of 5 μg/mL in the culture medium.
Cell viability was determined using CellTier 96® Aqueous One solution cell proliferation assay kit according to the manufacturer's instruction (Promega Corporation, Madison, Wis.), and according to the procedures recited in Kim B J et al., Reinforced multifunctionalized nanofibrous scaffolds using mussel adhesive proteins, Angew Chem Int Ed Eng, 2012; 51:675-8. This assay evaluates mitochondrial function by measuring the ability of viable cells to reduce MTS ((3-(4,5-dimethylthiazol-2-yl)-5-(3-carboxymethoxyphenyl)-2-(4-sulfophenyl)-2H-tetrazolium)) into a quantifiable […] formazon product. […]

COC(=O)Nc1nc2ccc(C(=O)c3cccs3)cc2[nH]1 [nocodazole]
effect on cell viability (MTS): significant cell death
